Test results from patent US8658697B2 (priority 2004, dated 2014).

These compounds were tested on Tacaribe virus (TRVL 11573) (assay: microbe, parasite or virus in culture). Settings: Mammarenavirus tacaribeense, Vero, read-out: Tacaribe EC50.
Type: cell-based

Row | SMILES | EC50 [µM]
1 | COc1cccc(OC)c1NC(=O)NC(C)(C(F)(F)F)C(F)(F)F [Example 73, l-(2,6-Dimethoxyphenyl)-3-(2,2,2-trifluoro-1-methyl-1-trifluoromethylethyl)-urea] | 1 to 5
2 | CC(NC(=O)Nc1ccc(C(=O)O)cc1OC(F)(F)F)(C(F)(F)F)C(F)(F)F [Example 74, 3-Trifluormethoxy-4-[3-(1,1-bis-trifluoromethylethyl)-ureido]benzoic acid] | 1 to 5
3 | CC(NC(=O)Nc1ccccc1)(C(F)(F)F)C(F)(F)F [Example 75, 1-Phenyl-3-(2,2,2-trifluoro-1-methyl-1-trifluoromethylethyl)-urea] | 1 to 5
4 | CC(NC(=O)Nc1cccc(C#N)c1)(C(F)(F)F)C(F)(F)F [Example 76, 1-(3-Cyanophenyl)-3-(2,2,2-trifluoro-1-methyl-1-trifluoromethylethyl)-urea] | 1 to 5
5 | COc1cccc(NC(=O)NC(C)(C(F)(F)F)C(F)(F)F)c1 [Example 77, 1-(3-Methoxyphenyl)-3-(2,2,2-trifluoro-1-methyl-1-trifluoromethylethyl)-urea] | 1 to 5
6 | CC(NC(=O)Nc1ccccc1OC(F)(F)C(F)F)(C(F)(F)F)C(F)(F)F [Example 78, 1-(2-(1,1,2,2-Tetrafluoroethoxy)phenyl)-3-(2,2,2-trifluoro-1-methyl-1-trifluoromethylethyl)-urea] | 1 to 5
7 | CC(NC(=O)Nc1cccc(S(N)(=O)=O)c1)(C(F)(F)F)C(F)(F)F [Example 79, 3-[3-(1,1-Bis-trifluoromethylethyl)-ureido]benzenesulfonamide] | 1 to 5
8 | CC(NC(=O)Nc1cccc(F)c1)(C(F)(F)F)C(F)(F)F [Example 80, 1-(3-fluorophenyl)-3-(2,2,2-trifluoro-1-methyl-1-trifluoromethylethyl)-urea] | 1 to 5
9 | CC(NC(=O)Nc1ccc(Br)cc1)(C(F)(F)F)C(F)(F)F [Example 81, 1-(4-Bromophenyl)-3-(2,2,2-trifluoro-1-methyl-1-trifluoromethylethyl)-urea] | 1 to 5
10 | CC(NC(=O)Nc1ccccc1C#N)(C(F)(F)F)C(F)(F)F [Example 82, 1-(2-Cyanophenyl)-3-(2,2,2-trifluoro-1-methyl-1-trifluoromethylethyl)-urea] | 1 to 5
11 | CC(NC(=O)Nc1ccc(C#N)cc1)(C(F)(F)F)C(F)(F)F [Example 83, 1-(4-Cyanophenyl)-3-(2,2,2-trifluoro-1-methyl-1-trifluoromethylethyl)-urea] | 1 to 5
12 | CC(NC(=O)Nc1cccc2c1OC(F)(F)O2)(C(F)(F)F)C(F)(F)F [Example 84, 1-(2,2-Difluorobenzo[1,3]dioxol-4-yl)-3-(2,2,2-trifluoro-1-methyl-1-trifluoromethylethyl)-urea] | 1 to 5
13 | CC(NC(=O)Nc1ccc(Cl)cc1)(C(F)(F)F)C(F)(F)F [Example 85, 1-(4-Chlorophenyl)-3-(2,2,2-trifluoro-1-methyl-1-trifluoromethylethyl)-urea] | > 5
14 | Cc1cccc(NC(=O)NC(C)(C(F)(F)F)C(F)(F)F)c1 [Example 86, 1-(3-Methylphenyl)-3-(2,2,2-trifluoro-1-methyl-1-trifluoromethylethyl)-urea] | > 5
15 | CC(NC(=O)Nc1ccc(S(N)(=O)=O)cc1)(C(F)(F)F)C(F)(F)F [Example 87, 4-[3-(1,1-Bis-trifluoromethylethyl)-ureido]benzenesulfonamide] | > 5
16 | CC(NC(=O)Nc1c(Br)cccc1Br)(C(F)(F)F)C(F)(F)F [Example 88, 1-(2,6-Dibromophenyl)-3-(2,2,2-trifluoro-1-methyl-1-trifluoromethylethyl)-urea] | > 5
17 | Cc1ccccc1NC(=O)NC(C)(C(F)(F)F)C(F)(F)F [Example 89, 1-(2-Methylphenyl)-3-(2,2,2-trifluoro-1-methyl-1-trifluoromethylethyl)-urea] | > 5
18 | Cc1ccc(NC(=O)NC(C)(C(F)(F)F)C(F)(F)F)cc1 [Example 90, 1-(4-Methylphenyl)-3-(2,2,2-trifluoro-1-methyl-1-trifluoromethylethyl)-urea] | > 5
